Where “and” joins values, the source holds several entries; their conditions need not be identical. Equal entries are not always repeated. Where two headings read alike, the source gives them in different places.
Legend:
[1] = target: ALK (Homo sapiens (Human), UniProt Q9UM73); assay: In vitro kinase activity assay (LANCE TR-FRET); format: biochemical;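 further: kinase reactions with ATP and a poly-GT peptide substrate, phosphorylated product read by time-resolved FRET, 11-point curve from 10^−11 to 10^−5 M, DMSO as negative control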
Chain of ALK (Q9UM73 19-1620): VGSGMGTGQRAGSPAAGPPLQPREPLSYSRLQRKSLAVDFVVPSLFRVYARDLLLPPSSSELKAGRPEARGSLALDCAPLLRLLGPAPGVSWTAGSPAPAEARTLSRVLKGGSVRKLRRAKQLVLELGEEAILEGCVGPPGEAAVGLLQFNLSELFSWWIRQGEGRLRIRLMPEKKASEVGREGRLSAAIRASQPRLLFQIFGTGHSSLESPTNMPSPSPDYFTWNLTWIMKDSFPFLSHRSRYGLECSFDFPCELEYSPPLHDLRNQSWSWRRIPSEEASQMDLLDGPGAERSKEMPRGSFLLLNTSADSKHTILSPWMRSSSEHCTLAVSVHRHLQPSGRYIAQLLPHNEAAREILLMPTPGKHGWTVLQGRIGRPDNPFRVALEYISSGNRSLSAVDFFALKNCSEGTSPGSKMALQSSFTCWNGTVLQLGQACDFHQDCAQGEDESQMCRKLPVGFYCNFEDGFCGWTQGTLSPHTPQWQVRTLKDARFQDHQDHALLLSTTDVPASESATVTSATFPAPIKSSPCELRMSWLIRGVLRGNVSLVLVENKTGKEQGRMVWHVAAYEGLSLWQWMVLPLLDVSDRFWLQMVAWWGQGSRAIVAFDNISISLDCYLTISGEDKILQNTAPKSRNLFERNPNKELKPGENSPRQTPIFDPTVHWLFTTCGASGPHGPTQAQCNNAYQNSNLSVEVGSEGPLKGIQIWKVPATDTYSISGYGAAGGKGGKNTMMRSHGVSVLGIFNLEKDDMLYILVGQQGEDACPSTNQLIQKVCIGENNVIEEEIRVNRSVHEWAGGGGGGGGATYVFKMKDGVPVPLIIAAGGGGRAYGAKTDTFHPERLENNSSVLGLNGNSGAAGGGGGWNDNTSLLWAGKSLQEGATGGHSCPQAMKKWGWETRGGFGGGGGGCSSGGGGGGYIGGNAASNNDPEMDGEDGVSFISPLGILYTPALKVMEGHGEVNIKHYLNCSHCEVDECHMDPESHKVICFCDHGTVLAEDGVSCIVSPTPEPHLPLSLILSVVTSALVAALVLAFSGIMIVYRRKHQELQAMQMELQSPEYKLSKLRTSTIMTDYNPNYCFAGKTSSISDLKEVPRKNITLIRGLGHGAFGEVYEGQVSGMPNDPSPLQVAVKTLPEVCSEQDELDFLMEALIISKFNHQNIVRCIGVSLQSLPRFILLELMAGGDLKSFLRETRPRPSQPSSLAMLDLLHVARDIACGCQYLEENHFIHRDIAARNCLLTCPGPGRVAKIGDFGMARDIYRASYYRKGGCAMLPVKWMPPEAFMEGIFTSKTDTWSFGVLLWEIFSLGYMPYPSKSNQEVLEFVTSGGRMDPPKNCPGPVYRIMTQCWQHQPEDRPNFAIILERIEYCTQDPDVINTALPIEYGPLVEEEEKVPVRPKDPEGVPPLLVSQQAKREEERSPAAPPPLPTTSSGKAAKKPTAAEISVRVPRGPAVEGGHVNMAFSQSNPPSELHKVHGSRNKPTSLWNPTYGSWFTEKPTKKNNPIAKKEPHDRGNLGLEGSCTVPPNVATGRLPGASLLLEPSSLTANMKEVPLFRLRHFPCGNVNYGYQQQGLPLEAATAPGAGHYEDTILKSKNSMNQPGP

[2] = system: K299 lymphoma cells; assay: Cellular assay, 3 day cell viability (WST-1); format: cell-based; conditions: 72 h, 3 days, read-out: GTx-K299 IC50
[3] = system: U937 lymphoma cells; assay: Cellular assay, 3 day cell viability (WST-1); format: cell-based; conditions: Homo sapiens, U-937, 72 h; 3 days, WST-1; read-out: GTx-U937 IC50
[4] = system: SUDHL-1 lymphoma cells; assay: Cellular assay, 3 day cell viability (WST-1); format: cell-based; conditions: Homo sapiens, SU-DHL-1, 72 h; 3 days, WST-1; read-out: GTx-SUDHL-1 IC50
[5] = target: TrkA (Homo sapiens (Human), UniProt P04629); assay: In vitro kinase activity assay (LANCE TR-FRET); format: biochemical;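 further: kinase reaction with poly-GT peptide substrate and ATP, phosphorylated product quantified by time-resolved FRET, eleven-point dose curves from 10^−11 to 10^−5 M in triplicate, DMSO as negative control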
Chain of TrkA (P04629 33-796): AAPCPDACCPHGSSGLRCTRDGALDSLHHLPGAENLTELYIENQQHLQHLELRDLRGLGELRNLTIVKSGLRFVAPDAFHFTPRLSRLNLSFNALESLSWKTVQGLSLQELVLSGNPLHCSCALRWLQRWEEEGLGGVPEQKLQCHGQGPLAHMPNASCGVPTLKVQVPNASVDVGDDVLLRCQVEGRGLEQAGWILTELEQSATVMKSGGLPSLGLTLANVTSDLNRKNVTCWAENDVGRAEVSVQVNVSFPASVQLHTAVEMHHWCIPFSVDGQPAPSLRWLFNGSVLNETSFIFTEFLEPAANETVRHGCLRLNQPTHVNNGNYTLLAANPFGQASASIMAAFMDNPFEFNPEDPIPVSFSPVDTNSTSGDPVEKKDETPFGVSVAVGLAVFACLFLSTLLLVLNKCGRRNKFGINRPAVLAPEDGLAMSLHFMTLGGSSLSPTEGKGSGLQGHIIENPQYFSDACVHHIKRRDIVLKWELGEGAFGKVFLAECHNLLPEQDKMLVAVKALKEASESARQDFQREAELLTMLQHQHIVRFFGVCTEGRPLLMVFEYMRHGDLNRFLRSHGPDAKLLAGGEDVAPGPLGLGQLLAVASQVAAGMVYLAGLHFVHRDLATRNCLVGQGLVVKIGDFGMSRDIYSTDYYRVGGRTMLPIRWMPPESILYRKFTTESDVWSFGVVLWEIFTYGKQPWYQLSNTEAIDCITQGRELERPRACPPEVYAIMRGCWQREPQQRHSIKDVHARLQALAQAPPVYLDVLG

[6] = in vitro; conditions: human, microsomes; for microsomal CLint at 0.5 μM: pH 7.4, Human LM-P1 CL (ul/min/mg); for half-life at 0.5 μM: pH 7.4, Human LM-P1 Half-life (min)
[7] = in vitro; conditions: rat, microsomes; for half-life at 0.5 μM: pH 7.4; for microsomal CLint at 0.5 μM: pH 7.4, Rat LM-P1 CL (ul/min/mg)
[8] = target: RET (Homo sapiens (Human), UniProt P07949); assay: In vitro kinase activity assay (LANCE TR-FRET); format: biochemical; conditions: read-out: RET (nM) IC50
Chain of RET (P07949 29-1114): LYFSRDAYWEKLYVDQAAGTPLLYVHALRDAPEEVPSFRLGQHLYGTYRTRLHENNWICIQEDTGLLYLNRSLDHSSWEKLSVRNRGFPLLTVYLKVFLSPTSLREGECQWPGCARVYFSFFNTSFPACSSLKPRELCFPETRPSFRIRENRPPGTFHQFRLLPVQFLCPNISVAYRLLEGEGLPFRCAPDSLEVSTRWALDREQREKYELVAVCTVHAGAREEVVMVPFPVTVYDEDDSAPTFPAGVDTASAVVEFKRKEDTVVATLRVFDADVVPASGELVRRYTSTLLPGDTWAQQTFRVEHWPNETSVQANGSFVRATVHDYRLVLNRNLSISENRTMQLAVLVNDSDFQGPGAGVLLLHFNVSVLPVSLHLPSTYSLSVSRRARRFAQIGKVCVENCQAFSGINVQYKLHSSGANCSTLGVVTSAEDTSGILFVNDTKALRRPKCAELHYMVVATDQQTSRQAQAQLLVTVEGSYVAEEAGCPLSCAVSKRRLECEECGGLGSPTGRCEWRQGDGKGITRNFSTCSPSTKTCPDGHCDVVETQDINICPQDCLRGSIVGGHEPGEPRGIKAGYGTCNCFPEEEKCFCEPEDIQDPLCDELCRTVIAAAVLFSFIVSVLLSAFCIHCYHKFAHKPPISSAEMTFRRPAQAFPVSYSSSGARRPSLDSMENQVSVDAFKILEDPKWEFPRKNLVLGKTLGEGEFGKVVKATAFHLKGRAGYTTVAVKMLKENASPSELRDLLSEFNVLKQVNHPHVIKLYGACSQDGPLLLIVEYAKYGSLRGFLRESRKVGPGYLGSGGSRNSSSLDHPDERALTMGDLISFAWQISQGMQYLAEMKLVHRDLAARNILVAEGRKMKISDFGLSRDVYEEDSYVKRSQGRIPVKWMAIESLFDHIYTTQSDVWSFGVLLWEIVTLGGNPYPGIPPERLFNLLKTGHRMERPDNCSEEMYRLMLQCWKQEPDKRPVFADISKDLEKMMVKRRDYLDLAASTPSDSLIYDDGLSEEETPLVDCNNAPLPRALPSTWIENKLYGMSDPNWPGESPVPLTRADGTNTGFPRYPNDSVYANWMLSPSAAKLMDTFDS

[9] = target: ROS (Homo sapiens (Human), UniProt P08922); assay: In vitro kinase activity assay (LANCE TR-FRET); format: biochemical; conditions: read-out: ROS (nM) IC50
[10] = Metabolic stability, Phase I microsome reactions; format: in vitro ADME, mouse; conditions: mouse, liver microsomes, pH 7.4, Phase I only, 1.0 mg/ml microsomes
[11] = Caco-2 cell permeation study; format: in vitro ADME; conditions: human;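 further: Caco-2 monolayers grown for 21–28 days with integrity confirmed by TEER, apical buffer HBSS with MES, basolateral buffer HBSS with HEPES, compound levels quantified by LC/MS/MS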
[12] = system: Caco-2 cells; assay: Caco-2 cell permeation study; format: in vitro ADME; conditions: 10 μM; for Papp (10−6 cm/sec) B to A: basolateral pH 7.4, 2 h;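 on all read-outs here: Caco-2 monolayers grown for 21–28 days with integrity confirmed by TEER, apical buffer HBSS with MES, basolateral buffer HBSS with HEPES, compound levels quantified by LC/MS/MS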

Which results are given for `C[C@@H](Cc1cc(F)cc(F)c1F)Nc1cc[nH]c(=O)c1-c1nc2cc3c(cc2[nH]1)C(=O)N([C@@H](C)Cc1cc(F)cc(F)c1F)C3=O` (stereo in doubt) [Compound 40, 2-(2-oxo-4-(1-(2,3,5-trifluorophenyl)propan-2-ylamino)-1,2-dihydropyridin-3-yl)-6-(1-(2,3,5-trifluorophenyl)propan-2-yl)imidazo[4,5-f]isoindole-5,7(1H,6H)-dione]?
IC50 ([1]; read-out: ALK (nM) IC50): > 10000 nM; IC50 [2]: > 10000 nM; IC50 [3]: > 10000 nM; IC50 [4]: > 10000 nM; IC50 ([5]; read-out: TrkA (nM) IC50): > 10000 nM

With `CC(Cc1cc(F)ccc1F)Nc1cc[nH]c(=O)c1-c1nc2cc3c(cc2[nH]1)C(=O)N(CCN(C)C)C3=O` (stereo not shown) [Compound 17, 2-(4-(1-(2,5-Difluorophenyl)propan-2-ylamino)-2-oxo-1,2-dihydropyridin-3-yl)-6-(2-(dimethylamino)ethyl)imidazo[4,5-f]isoindole-5,7(1H,6H)-dione] as the molecule, how does the IC50 ([1]; read-out: ALK (nM) IC50) read?
Its IC50 is 38.9 nM.

What about the microsomal CLint at 0.5 μM [6] of the same molecule?
Its microsomal CLint at 0.5 μM is 8.77 µL/min/mg.

And the half-life at 0.5 μM [6]?
The half-life at 0.5 μM was 1.32 h.

And the IC50 ([5]; read-out: TrkA (nM) IC50)?
The IC50 was 17.5 nM.

What about the half-life at 0.5 μM [7] of the same molecule?
The half-life at 0.5 μM was 0.426 h.

What about the microsomal CLint at 0.5 μM [7] of the same molecule?
The microsomal CLint at 0.5 μM was 27.1 µL/min/mg.

With `Cc1c2c(cc3[nH]c(-c4c(NC(C)Cc5c(F)c(F)cc(F)c5F)cc[nH]c4=O)nc13)CN(C1CCN(C)CC1)C2=O` (stereo not shown) [Compound 24, 4-Methyl-6-(1-methylpiperidin-4-yl)-2-(2-oxo-4-(1-(2,3,5,6-tetrafluorophenyl)propan-2-ylamino)-1,2-dihydropyridin-3-yl)-6,7-dihydroimidazo[4,5-f]isoindol-5(1H)-one] as the molecule, how does the IC50 ([1]; read-out: ALK (nM) IC50) read?
The IC50 was 23.7 nM.

And the IC50 ([5]; read-out: TrkA (nM) IC50)?
Its IC50 is 10.4 nM.

With `Cc1c2c(cc3[nH]c(-c4c(NC(C)Cc5c(F)c(F)cc(F)c5F)cc[nH]c4=O)nc13)C(=O)N(C1CCN(C)CC1)C2` (stereo not shown) [Compound 24A, 8-Methyl-6-(1-methylpiperidin-4-yl)-2-(2-oxo-4-(1-(2,3,5,6-tetrafluorophenyl)propan-2-ylamino)-1,2-dihydropyridin-3-yl)-6,7-dihydroimidazo[4,5-f]isoindol-5(3H)-one] as the molecule, how does the IC50 ([1]; read-out: ALK (nM) IC50) read?
Its IC50 is 14.6 nM.

And the IC50 [8]?
The IC50 was 11.1 nM.

And the IC50 [9]?
Its IC50 is 2.37 nM.

What about the IC50 ([5]; read-out: TrkA (nM) IC50) of the same molecule?
The IC50 was 5.99 nM.

For `Cc1c2c(cc3[nH]c(-c4c(NC(C)Cc5c(F)c(F)cc(F)c5F)cc[nH]c4=O)nc13)C(=O)N(C1CCN(C)CC1)C2=O` (stereo not shown) [Compound 29, 4-Methyl-6-(1-methylpiperidin-4-yl)-2-(2-oxo-4-(1-(2,3,5,6-tetrafluorophenyl)propan-2-ylamino)-1,2-dihydropyridin-3-yl)imidazo[4,5-f]isoindole-5,7(1H,6H)-dione], which IC50 ([1]; read-out: ALK (nM) IC50) is on record?
The IC50 was 231 nM.

What about the IC50 ([5]; read-out: TrkA (nM) IC50) of the same molecule?
Its IC50 is 165 nM.

With `C[C@@H](Cc1cc(F)ccc1F)Nc1cc[nH]c(=O)c1-c1nc2cc3c(cc2[nH]1)C(=O)N(C)C3=O` [Compound 32, 2-(4-(1-(2,5-Difluorophenyl)propan-2-ylamino)-2-oxo-1,2-dihydropyridin-3-yl)-6-methylimidazo[4,5-f]isoindole-5,7(1H,6H)-dione] as the molecule, how does the IC50 ([1]; read-out: ALK (nM) IC50) read?
Its IC50 is > 300 nM.

And the IC50 ([1]; read-out: GTx-ALK IC50)?
Its IC50 is > 300 nM.

What about the microsomal CLint at 0.5 μM [6] of the same molecule?
The microsomal CLint at 0.5 μM was 7.81 µL/min/mg.

What about the half-life at 0.5 μM [6] of the same molecule?
The half-life at 0.5 μM was 1.48 h.

What about the microsomal CLint at 0.5 μM ([10]; read-out: Mouse LM-P1 CL) of the same molecule?
The microsomal CLint at 0.5 μM was < 5.8 µL/min/mg.

What about the half-life at 0.5 μM ([10]; read-out: Mouse LM-P1 Half-life) of the same molecule?
The half-life at 0.5 μM was > 2 h.

What about the IC50 [2] of the same molecule?
Its IC50 is 784 nM.

What about the Papp A→B at 2 h, 10 μM ([11]; Caco-2, pH 6.5, 10 μM, apical pH 6.5, 2 h) of the same molecule?
The Papp A→B at 2 h, 10 μM was < 0.2 ×10⁻⁶ cm/s.

And the “Papp (10−6 cm/sec) A to B” value ([12]; apical pH 6.5, 2 h)?
The value was >0.2 10−6 cm/sec.

What about the “Papp (10−6 cm/sec) B to A” value [12] of the same molecule?
The value was 0.1 10−6 cm/sec.

What about the IC50 [3] of the same molecule?
Its IC50 is > 3000 nM.

And the IC50 [4]?
Its IC50 is 957 nM.

What about the IC50 ([5]; read-out: GTx-TrKA IC50) of the same molecule?
Its IC50 is > 30 nM.

And the IC50 ([5]; read-out: TrkA (nM) IC50)?
Its IC50 is 30 to 100 nM.

What about the half-life at 0.5 μM [7] of the same molecule?
Its half-life at 0.5 μM is > 2 h.

And the microsomal CLint at 0.5 μM [7]?
The microsomal CLint at 0.5 μM was < 5.8 µL/min/mg.

Which results are given for `CC(Cc1cc(F)ccc1F)Nc1cc[nH]c(=O)c1-c1nc2cc3c(cc2[nH]1)C(=O)N(CC(O)CO)C3=O` [Compound 34, 2-(4-(1-(2,5-Difluorophenyl)propan-2-ylamino)-2-oxo-1,2-dihydropyridin-3-yl)-6-(R)-2,3-dihydroxypropyl)imidazo[4,5-f]isoindole-5,7(1H,6H)-dione]?
IC50 ([1]; read-out: ALK (nM) IC50): 13.8 nM and 4.71 nM; IC50 ([1]; read-out: GTx-ALK IC50): 14 nM; microsomal CLint at 0.5 μM [6]: 9.16 µL/min/mg; half-life at 0.5 μM [6]: 1.26 h; IC50 [2]: > 10000 nM; efflux ratio at 2 h, 10 μM ([11]; Caco-2, Caco-2): > 5.9; Papp B→A at 2 h, 10 μM ([11]; Caco-2, pH 7.4, 10 μM, basolateral pH 7.4, 2 h): 1.17 ×10⁻⁶ cm/s; Papp (10−6 cm/sec) B to A [12]: 1.17 10−6 cm/sec; IC50 [3]: > 10000 nM; IC50 [4]: > 10000 nM; IC50 ([5]; read-out: GTx-TrKA IC50): 7 nM; IC50 ([5]; read-out: TrkA (nM) IC50): 6.97 nM and 3.7 nM; half-life at 0.5 μM [7]: 0.561 h; microsomal CLint at 0.5 μM [7]: 20.6 µL/min/mg

For `CC(Cc1cc(F)ccc1F)Nc1cc[nH]c(=O)c1-c1nc2cc3c(cc2[nH]1)C(=O)N(C(C)C)C3=O` (stereo not shown) [Compound 36, 2-(4-((1-(2,5-Difluorophenyl)propan-2-yl)amino)-2-oxo-1,2-dihydropyridin-3-yl)-6-isopropylimidazo[4,5-f]isoindole-5,7(1H,6H)-dione], which IC50 [2] is on record?
Its IC50 is 1830 nM.

And the IC50 [3]?
Its IC50 is > 3000 nM.

And the IC50 [4]?
Its IC50 is 2770 nM.
